Calls of active or inactive are those of the source.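 The calls were made as follows: active = compounds giving half or more protection of infected cells from virus-caused growth loss, again on retest; inactive = the rest.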
Tested on: CEM cells HIV-1 protection, formazan growth assay
Assay: NCI AIDS Antiviral Assay
Conditions: for IC50: measured here: growth of uninfected CEM cells
In short: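 Steps: treat uninfected and HIV-1-infected human CEM cells at five drug levels; quantify growth by soluble formazan; retest any compound reaching 50% protection; classify actives from the retest.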

SMILES | EC50 | IC50 | outcome
COC(=O)c1ccc(CSc2ccccc2C(=O)O)cc1 | > 603 µM | 427 µM | 
CC(O)C1CC1(CO)CNc1cc(Cl)nc(N)n1 (configuration not stated) | > 200 µM | > 200 µM | 
NC(=O)N/N=C1\CCCCc2ccccc21 | > 200 µM | > 200 µM | 
C=C(Nc1nc2ccc(C)cc2s1)C(=O)C(CC)C(=O)C(CC)CC1C(=O)NC(=O)NC1=O (configuration not stated) | > 39.8 µM | > 39.8 µM | 
CCCCc1c2c(nc3c1CCc1cc4c(nc1-3)-c1nc3c(c(CCCC)c1CC4)CCC/C3=C\c1ccccc1)/C(=C/c1ccccc1)CCC2 | > 5.5 µM | > 5.5 µM | 
COc1cc(/C=C(\NC(=O)c2ccccc2)c2nc3[nH]c(=S)[nH]c(=O)c3[nH]2)cc(OC)c1OC |  |  | inactive
CC1=Nc2ccc(Cl)cc2N=C(C)C1 | > 200 µM | 155 µM | 
COc1ccc(C(C)NNC(=O)c2ccncc2)cc1F (configuration not stated) | > 200 µM | 112 µM | 
COc1cc(C2c3cc4c(cc3OC(N3CCCCC3)C2C)OCO4)cc(OC)c1O (configuration not stated) | > 200 µM | 7.59 µM | 
Clc1ccc(OC2CCO2)cc1Cl (configuration not stated) | > 162 µM | 145 µM | 
CNS(=O)(=O)NN(C)S(=O)(=O)c1ccc(Br)cc1 | > 132 µM | > 132 µM | 
CCOc1ccc(O)cc1[P+](c1ccccc1)(c1ccccc1)c1ccccc1 |  |  | inactive
C=C1C[C@@H]2O[C@H]3[C@H]4[C@@H](C[C@@H](C)[C@@H](OC(C)=O)[C@H]42)[C@@H](C)CO[C@@]3(C)[C@H](OC(=O)CCCCCCC)C[C@H]1O | > 200 µM | 11 µM | 
O=C(O)/C(Cl)=C(\Cl)C(=O)c1ccccc1 | > 1020 µM | > 1020 µM | 
COc1ccc(-c2cc(=O)c3c(O)c(OC)c(OC)c(OC)c3o2)cc1 | > 200 µM | 55 µM | 
CC(=O)OCCn1cnc2c(NCC=C(C)C)ncnc21 | > 200 µM | > 200 µM | 
CC1OC(OC2C(Oc3ccc4c(=O)c(-c5ccc(O)c(O)c5O)coc4c3)OC(CO)C(O)C2O)C(O)C(O)C1O (configuration not stated) | > 200 µM | 67.6 µM | 
CCC[CH2][Ge]([CH2]CCC)([CH2]CCC)[O]C(=O)CCl | > 32.4 µM | > 32.4 µM | 
COC(=O)C(=O)C(C(=O)C(=O)Nc1nc2ccc(C)cc2s1)c1nc2ccc([N+](=O)[O-])cc2[nH]c1=O (configuration not stated) | > 132 µM | 126 µM | 
CC(=O)N1N=C(c2ccc3ccccc3c2O)CC1c1ccc(N(C)C)cc1 (configuration not stated) | > 50.1 µM | > 50.1 µM | 
CCCCCCCCCCCCOP(=O)(O)OP(=O)(O)OCC1OC(n2ccc(N)nc2=O)CC1O (configuration not stated) | 57.5 µM | > 100 µM | 
CC(C)OP(=O)(OC(C)C)C(N(C)C)P(=O)(OC(C)C)OC(C)C.[CH3][Sn]([CH3])([Cl])[Cl] | > 302 µM | 17.4 µM | 

SMILES | EC50 | IC50 | outcome
O=C(NCCSSCCNC(=O)/C(Cc1ccc(O)c(Br)c1)=N/O)/C(Cc1ccc(O)c(Br)c1)=N/O |  |  | inactive
NCCC(O)C(=O)NC1CC(N)C(OC2OC(CN)C(O)C(O)C2O)C(O)C1OC1OC(CO)C(O)C(N)C1O (configuration not stated) |  |  | inactive
CC(C)C(=S)N(C)O | > 18.6 µM | 0.302 µM | 
O=C(Cc1nc2ccc(C(=O)c3ccccc3)cc2[nH]c1=O)C(=O)Nc1ccc(C(F)(F)F)cc1[N+](=O)[O-] | > 69.2 µM | 47.9 µM | 
Cc1ccc(C[N+](C)(C)c2ccccc2)o1 | > 724 µM | 102 µM | 
Cc1c(O)c2ccc(Cl)cc2n(C)c1=O | > 200 µM | > 200 µM | 
O=c1cc(-c2ccccc2)oc2cc(O)ccc12 | > 186 µM | 85.1 µM | 
CCCCN(CCCC)CN1C(=O)/C(=C/c2ccc(NC(C)=O)cc2)NC1=S | > 200 µM | > 200 µM | 
COc1cc2ccnc([C@@H](OC(=O)c3ccccc3)c3ccc(OC)c(OC)c3OC)c2cc1OC |  |  | inactive
O=C(Cn1c2c(c3ccccc31)CCCC2)N1CCCC1 | > 200 µM | > 200 µM | 
O=C1c2ccc(O)cc2OC(c2ccc(O)c(O)c2)C1O (configuration not stated) | > 200 µM | 93.3 µM | 
CC1c2c(cc(=O)n(C)c2O)C(=O)N1Cc1ccccc1 (configuration not stated) | > 347 µM | 257 µM | 
O=[N+]([O-])/C(C=Nc1ccccc1)=C/Nc1ccccc1 | > 200 µM | 105 µM | 
CN(c1ccc(Cl)cc1)S(=O)(=O)c1ccc([N+](=O)[O-])cc1 | > 200 µM | > 200 µM | 
O=[N+]([O-])c1ccc2c([N+](=O)[O-])ccc3c2c1CC3 | > 200 µM | 21.9 µM | 
CC(CCC#CC(=O)O)OC1CCCCO1 (configuration not stated) | > 200 µM | > 200 µM | 
Clc1nc(Cl)nc(Nc2cccc3ccccc23)n1 | > 200 µM | 107 µM | 
CC(C)(C)C1=CC(=C2C(=O)C(=O)c3ccccc3C2=O)C=C(C(C)(C)C)C1=O | > 6.92 µM | > 6.92 µM | 
CC(C)CNC12CN3CN(CN(C3)C1)C2 | > 1200 µM | > 1200 µM | 
CCOC(=O)C(c1ccsc1)P(=O)(OCC)OCC (configuration not stated) | > 813 µM | 28.2 µM | 
O=C(NC(=O)c1cn(CCN2CCN(C(=O)NCCCCCCNC(=O)N3CCN(CCn4cc(C(=O)NC(=O)OCc5ccccc5)c(=O)[nH]c4=O)CC3)CC2)c(=O)[nH]c1=O)OCc1ccccc1 |  |  | inactive
CCC1(CC(=O)N(C)C)CCCN(C(=O)Oc2ccccc2)C1 (configuration not stated) | > 31.6 µM | > 31.6 µM | 

SMILES | EC50 | IC50 | outcome
CCCCCCCCCCCCC(=O)NCC(=O)NC(Cc1ccccc1)C(=O)Oc1ccc([N+](=O)[O-])cc1 (configuration not stated) | > 200 µM | 5.25 µM | 
O=C(O)CCC(=O)NC(c1ccccc1)(c1ccccc1)c1ccccc1 | > 200 µM | > 200 µM | 
CSCCC(NC(c1ccccc1)c1ccccc1)[P+](=O)O (configuration not stated) | > 200 µM | > 200 µM | 
O=C(c1ccccc1)c1c(-c2ccccc2)sc2nc3ccccc3nc12 | > 27.5 µM | > 27.5 µM | 
Cc1ccc(Oc2nc(Cl)nc(Oc3ccc(C)cc3)n2)cc1 | > 200 µM | > 200 µM | 
Cc1nc(C(N)=S)sc1C(/C=C/c1ccc(Cl)c(Cl)c1)=N/NC(C)(C)C | > 117 µM | > 117 µM | 
CC(C)=CCc1c(-c2ccc(O)cc2OC2OC(CO)C(O)C(O)C2O)oc2c3c(cc(O)c2c1=O)OC(C)(C)C=C3 (configuration not stated) | > 58.9 µM | > 58.9 µM | 
C=CCOCn1cnc2c(N)ncnc21 |  |  | inactive
COc1ccc(/C=C(\C#N)c2ccc([N+](=O)[O-])cc2)cc1[N+](=O)[O-] | 182 µM | 195 µM | 
NC(=O)NNc1nc(-c2ccccc2)cs1 | > 200 µM | 87.1 µM | 
C=CC1(C)CN(Cc2ccccc2)C(C(=O)OCC)O1 (configuration not stated) | > 26.3 µM | > 26.3 µM | 
COc1cccc(N)c1N | > 1170 µM | 18.2 µM | 
O=c1[nH]cnc2c1ncn2C1SC(CO)C(O)C1O (configuration not stated) | > 200 µM | 117 µM | 
CCCC(=O)n1[nH]c(=O)n(C(C)(C)C)c1=O | > 200 µM | > 200 µM | 
CC(C)CCC[C@@H](C)C1CCC2[C@@H]3CC(OS(=O)(=O)O)C4C[C@@H](O)CC[C@]4(C)C3CC[C@@]21C (some centres not stated) | > 49 µM | > 49 µM | 
CCOC(=O)C1(C(=O)OCC)OC(=O)NC2=C1CCCC2 | > 832 µM | 145 µM | 
CC(=C(C(N)=O)C(N)=O)C1C=C(c2cccs2)CC(c2ccc(Cl)cc2)=C1O (configuration not stated) | > 200 µM | > 100 µM | 
CCC12C=CCN3CC[C@]4(C(=C(C(=O)OC)[C@@H]1Nc1ccn(C5OC(COC(C)=O)C(OC(C)=O)C5OC(C)=O)c(=O)n1)Nc1ccccc14)C32 (some centres not stated) | > 26.9 µM | 3.63 µM | 
CC12N=NN(c3ccc([N+](=O)[O-])cc3)C1(O)c1ccccc1C2=O (configuration not stated) | > 200 µM | > 200 µM | 
COc1cccc2c1C(=O)c1ccc3cc(CCl)cc(O)c3c1C2=O | > 200 µM | 0.468 µM | 
O=C(O)CC1NC(/C(=C/c2ccccc2O)NC(=O)c2ccccc2)OC1=O (configuration not stated) |  |  | inactive
O=C(CC(=O)N(C(=O)/C=C\c1ccccc1)c1ccc(Cl)cc1)N1N=C(c2ccccc2)C(N=Nc2cccc([N+](=O)[O-])c2)C1=O (configuration not stated) | > 200 µM | 3.55 µM | 

SMILES | EC50 | IC50 | outcome
O=C(CCc1ccccc1)On1c(-c2ccccc2)nc2ccccc2c1=S | > 200 µM | 3.47 µM | 
S=c1cn[nH]c2c(Cl)cccc12 | > 107 µM | 81.3 µM | 
C#CCOCn1cnc2ncnc(Cl)c21 | > 1120 µM | > 200 µM | 
COc1ccc2c(c1)CCc1c-2n(CCN2CCCCC2)c2ccc(OC)cc12 | > 100 µM | > 100 µM | 
C[C@@H](CO)C1=C(O)c2ccc3c(c2C(=O)C1=O)CCCC3(C)C | > 200 µM | 15.1 µM | 
N#C/C=C/c1ccc2ccccc2c1 | > 40.7 µM | > 40.7 µM | 
Cc1ccc(Nc2ncnc3sc(SCc4ccccc4)nc23)cc1 |  |  | inactive
C=C1CN(S(=O)(=O)c2ccc(C)cc2)CCCN(C(=O)OC)CCCN(S(=O)(=O)c2ccc(C)cc2)C1 | > 200 µM | 107 µM | 
O/N=C1/C(=C/c2ccc(F)cc2)CCCC1C(NO)c1ccc(F)cc1 (configuration not stated) | > 2.88 µM | > 2.88 µM | 
Cc1ccc2nc(CN3CCCCC3)cc(=O)n2c1 | > 151 µM | > 151 µM | 
CCOC(=O)C(C)(C)Oc1ccc2c(C)c(-c3ccc(Cl)cc3)c(=O)oc2c1 | > 12.9 µM | > 12.9 µM | 
CCOC(=O)C(C)(C)Oc1ccc2c(=O)cc(-c3ccc(Cl)cc3)oc2c1 | > 18.6 µM | > 18.6 µM | 
Cc1cc2c(cc1Cl)SC(C(=O)c1ccc(Cl)cc1)=NS2(=O)=O |  |  | inactive
CC(=O)/C=c1\[nH]/c(=C\C=C\c2ccccc2)c(=O)n1/C=C1\C(=O)Oc2ccccc2C1=O | > 200 µM | 166 µM | 
Cc1ccc(S(=O)(=O)SC(C)(C)C)cc1 | > 29.5 µM | 9.33 µM | 
CC(=O)c1ccc(Br)cc1NC1=CC(=O)c2ncccc2C1=O | > 200 µM | 4.68 µM | 
COC(=O)N1CC=CC2(CCOCc3ccccc3)CC[C@@](O)(c3ccccc3NC(=O)C(C)(C)C)C(=O)C12 (some centres not stated) | > 35.5 µM | > 35.5 µM | 
CC(C)=CCC/C(C)=C/CCC(C(=O)COCc1ccccc1)P1(=O)OC(C)(C)CN1C(C)(C)C (configuration not stated) | > 200 µM | 61.7 µM | 
S=C(/C=C1\SC(=Nc2ccccc2)C(=Nc2ccccc2)N1c1ccccc1)Nc1ccccc1 | > 200 µM | > 200 µM | 
CCCCCCCCCCCCCCCCC(O)CS(=O)(=O)O (configuration not stated) | > 100 µM | 16.2 µM | 

— PubChem BioAssay AID179 (DTP/NCI, 2004)
